Test results as given in PMC8308678, “Treatment with Micafungin in a Preterm Neonate with an Invasive Candida parapsilosis Infection after a Severe Terlipressin-Induced Skin Necrosis” (Pathogens, 2021).
Values after ≈ are worked out from the molar mass of the structure shown. Like-named read-outs stand apart in the source and are kept apart here. Starred links: 1 amine or outer side, 2 acyl side, 3 side chain; linkers in the order of their positions; H or OH if unused. Positions of bridges follow the written chain, without caps; N, C: chain ends. Non-standard residues stand in square brackets, D forms with d. Residues, ends and D or L forms follow the SMILES beside them. *: point of attachment. hTyr(3S-OH,4S-OH,3'-OSO3H) = N[C@H](C(=O)O)[C@H](O)[C@@H](O)c1ccc(O)c(OS(=O)(=O)O)c1; pTerphenylCO(4''-OnC5H11) = CCCCCOc1ccc(-c2ccc(-c3ccc(C(=O)*)cc3)cc2)cc1; Orn(4R-OH,5R-OH) = O=C([C@H](C[C@@H](O)[C@@H](O)N[*:3])N[*:1])[*:2]; hTyr(3S-OH,4S-OH) = N[C@H](C(=O)O)[C@H](O)[C@@H](O)c1ccc(O)cc1; Pro(3S-OH,4S-Me) = C[C@H]1CN[C@H](C(=O)O)[C@H]1O; X1 = CCCCCOc1ccc(-c2cc(-c3ccc(C(=O)*)cc3)no2)cc1; Gln(3R-OH) = NC(=O)C[C@@H](O)[C@H](N)C(=O)O; Hyp = O=C(O)[C@@H]1C[C@@H](O)CN1

Key:
Candida parapsilosis = assay: microbe, parasite or virus in culture; assay type: cell-based; conditions: CLSI guidelines; for MIC: isolated Candida parapsilosis strain (cutaneous swab and urine culture); for Susceptibility of the isolated Candida strain: isolated Candida parapsilosis strain
Protocol: (§1) Cutaneous swab and urine culture both yielded Candida parapsilosis. The fungal load in urine was 1,000,000 CFU/mL. Susceptibility tests were performed according to the Clinical and Laboratory Standards Institute (CLSI) guidelines. Blood cultures resulted negative, but the child had been on antimicrobial therapy for several days. The isolated Candida strain was susceptible to micafungin (MIC, 0.5 µg/mL), anidulafungin (MIC, 2 µg/mL), fluconazole (MIC, 0.5 µg/mL), itraconazole (MIC, 0.06 µg/mL), voriconazole (MIC, <0.008 µg/mL) and amphotericin B (MIC, 0.5 µg/mL). Among the effective antifungals, we chose micafungin because of the feasibility of plasma concentration monitoring via heel stick capillary samples [8]. After given and obtained informed consent from the parents, both in relation to the high dosage of micafungin to be administered and monitored and to the participation in clinical trials and publications, micafungin was administered intravenously at a dose of 8 mg/kg/day; it was diluted in 0.9% saline solution at a concentration of 2 mg/mL and infused intravenously through epicutaneo-cava catheter in one hour. Plasma micafungin concentrations were measured by high performance liquid chromatography (HPLC) on the third day of the starting of therapy. The lower limit of detection (LLOD) of micafungin was 0.5 mg/L, and the lower limit of quantification (LLOQ) was 1 mg/L. (Table 1).

[1] = test system: invasive Candida parapsilosis infection; assay: Clinical treatment of invasive Candida parapsilosis infection (case report); assay type: in vivo, human preterm neonate; conditions: 8 mg/kg/day; extremely preterm neonate with invasive Candida parapsilosis infection
Protocol: as §1, with “1). […]” for “1).”

[2] = Plasma micafungin concentration monitoring by HPLC; assay type: in vivo, human preterm neonate; conditions: one patient
Protocol: as §1
(§2) Given the severe clinical conditions of our patient, the epicutaneo-cava catheter was difficult to replace safely. The systemic therapy allowed complete infection control. […] We monitored plasma concentration of micafungin on 0.3 mL heel puncture blood samples, as previously described, in order to avoid excessive blood draws in a patient of low weight and in such severe clinical conditions.

[3] = test system: confirmed or suspected ICIs; conditions: 8 mg/kg/day; 35 neonates with confirmed or suspected ICIs; cited from earlier work
Text: Invasive Candida infections (ICIs) are a major cause of morbidity and mortality among very preterm infants; Candida albicans is the most frequently occurring species, although Candida parapsilosis infections are increasingly reported in preterm neonates. Despite the high minimum inhibitory concentration (MIC) necessary for Candida parapsilosis eradication, echinocandins have a prominent role when an ICI occurs in very preterm infants. These patients often carry a central vascular catheter in which Candida parapsilosis forms a biofilm, due to its adherence properties that favo ...

[4] = Clinical tolerability of micafungin (case report); assay type: in vivo, human preterm neonate; conditions: 8 mg/kg/day; for Side effects / tolerability: baby with previous cholestasis
Protocol: as §2

| Structure (SMILES) | MIC (Candida parapsilosis; read-out: MIC) [µg/mL] | Susceptibility of the isolated Candida strain (Candida parapsilosis) | MIC (Candida parapsilosis) [µg/mL] | other results |
| --- | --- | --- | --- | --- |
| CCCCCOc1ccc(-c2ccc(-c3ccc(C(=O)N[C@H]4C[C@@H](O)[C@@H](O)NC(=O)[C@@H]5[C@@H](O)[C@@H](C)CN5C(=O)[C@H]([C@@H](C)O)NC(=O)[C@H]([C@H](O)[C@@H](O)c5ccc(O)cc5)NC(=O)[C@@H]5C[C@@H](O)CN5C(=O)[C@H]([C@@H](C)O)NC4=O)cc3)cc2)cc1 [anidulafungin] ({pTerphenylCO(4''-OnC5H11)}-[Orn(4R-OH,5R-OH)]T[Hyp][hTyr(3S-OH,4S-OH)]T[Pro(3S-OH,4S-Me)]; lactam 1-C; N-terminus assumed) | – | susceptible | 2 (≈ 1.75 µM) | – |
| CCCCCOc1ccc(-c2cc(-c3ccc(C(=O)N[C@H]4C[C@@H](O)[C@@H](O)NC(=O)[C@@H]5[C@@H](O)[C@@H](C)CN5C(=O)[C@H]([C@H](O)CC(N)=O)NC(=O)[C@H]([C@H](O)[C@@H](O)c5ccc(O)c(OS(=O)(=O)O)c5)NC(=O)[C@@H]5C[C@@H](O)CN5C(=O)[C@H]([C@@H](C)O)NC4=O)cc3)no2)cc1 [micafungin] (X1-[Orn(4R-OH,5R-OH)]T[Hyp][hTyr(3S-OH,4S-OH,3'-OSO3H)][Gln(3R-OH)][Pro(3S-OH,4S-Me)]; lactam 1-C) | – | susceptible | 0.5 (≈ 0.394 µM) | Clinical efficacy [1]: effective; Plasma Cmax/MIC ratio ([2]; 8 mg/kg/day micafungin dose): > 10; Cmax ([2]; human, in vivo, iv, 8 mg/kg/day i.v. over one hour, third day of therapy, plasma, HPLC, read-out: Plasma micafungin concentration, 1 h after infusion (C max)): 11800 ng/mL; level at -0.5 h ([2]; human, iv, 8 mg/kg/day i.v. over one hour, third day of therapy, plasma, HPLC, heel puncture blood samples, read-out: Plasma micafungin concentration, 30 min before infusion (C min)): 3730 ng/mL; level at 2 h ([2]; human, iv, 8 mg/kg/day i.v. over one hour, third day of therapy, plasma, HPLC, read-out: Plasma micafungin concentration, 2 h after infusion): 9700 ng/mL; level at 8 h ([2]; human, iv, 8 mg/kg/day i.v. over one hour, third day of therapy, plasma, HPLC, read-out: Plasma micafungin concentration, 8 h after infusion): 7900 ng/mL; Response [3]: high response; Side effects / tolerability [4]: did not cause side effects; Side effects / tolerability ([4]; listed as Micafungin): well tolerated; Aspartate aminotransaminase and alanine aminotransaminase ([4]; rapidly returned within normal range after discontinuation of therapy): transient increase |
| OC(Cn1cncn1)(Cn1cncn1)c1ccc(F)cc1F [fluconazole] | 0.5 (≈ 1.63 µM) | susceptible | – | – |

Second part, led by results:

| MIC (Candida parapsilosis; read-out: MIC) [µg/mL] | Structure (SMILES) | Susceptibility of the isolated Candida strain (Candida parapsilosis) | MIC (Candida parapsilosis) [µg/mL] | other results |
| --- | --- | --- | --- | --- |
| 0.06 (≈ 0.085 µM) | CCC(C)n1ncn(-c2ccc(N3CCN(c4ccc(OCC5COC(Cn6cncn6)(c6ccc(Cl)cc6Cl)O5)cc4)CC3)cc2)c1=O (stereo not shown) [itraconazole] | susceptible | – | – |
| 0.5 (≈ 0.541 µM) | C[C@@H]1[C@H](O)[C@@H](C)/C=C/C=C/C=C/C=C/C=C/C=C/C=C/[C@H](O[C@@H]2O[C@H](C)[C@@H](O)[C@H](N)[C@@H]2O)C[C@@H]2O[C@](O)(C[C@@H](O)C[C@@H](O)[C@H](O)CC[C@@H](O)C[C@@H](O)CC(=O)O[C@H]1C)C[C@H](O)[C@H]2C(=O)O [amphotericin B] | susceptible | – | – |
| < 0.008 | C[C@@H](c1ncncc1F)[C@](O)(Cn1cncn1)c1ccc(F)cc1F [voriconazole] | susceptible | – | – |
